Reference: paper PMC12142043, “Cell-based high-content approach for SARS-CoV-2 neutralization identifies unique monoclonal antibodies and PI3K pathway inhibitors” (Frontiers in Cell and Developmental Biology, 2025)
Where a name gives a salt, the structure may show the parent alone.

Test system: SARS-CoV-2 (USA-WA1/2020) in Calu-3 cells
Assay type: cell-based
Details: Calu-3, 48 h; for dsRNA signal, AU High: high dose (10 µM); for dsRNA signal, AU Low: low dose (100 nM)

SMILES: CO[C@H]1C[C@@H]2CC[C@@H](C)[C@@](O)(O2)C(=O)C(=O)N2CCCC[C@H]2C(=O)O[C@H]([C@H](C)C[C@@H]2CC[C@@H](OP(C)(C)=O)[C@H](OC)C2)CC(=O)[C@H](C)/C=C(\C)[C@@H](O)[C@@H](OC)C(=O)[C@H](C)C[C@H](C)/C=C/C=C/C=C/1C [Ridaforolimus (Deforolimus, MK-8669)]
- dsRNA signal, AU High: 23072.2 AU
- dsRNA signal, AU Low: 31512.5 AU

SMILES: COc1cc(OC)c(/C=C/S(=O)(=O)Cc2ccc(OC)c(NCC(=O)O)c2)c(OC)c1 [Rigosertib (ON-01910,Estybon)]
- dsRNA signal, AU High: 14175.0 AU
- dsRNA signal, AU Low: 4849.9 AU

SMILES: O=C1NC(=NCc2cccs2)S/C1=C\c1ccc2ncccc2c1 [Ro 3306]
- dsRNA signal, AU High: 2807.1 AU
- dsRNA signal, AU Low: 25048.4 AU

SMILES: O=C(/C=C/c1ccc(O)c(O)c1)O[C@H](Cc1ccc(O)c(O)c1)C(=O)O [Rosmarinic acid]
- dsRNA signal, AU High: 3864.4 AU
- dsRNA signal, AU Low: 42457.9 AU

SMILES: C[C@@H]1COCCN1c1cc(=O)n2c(n1)N(Cc1cncc(Cl)c1)[C@H](C(F)(F)F)CC2 [SAR405]
- dsRNA signal, AU High: 1587.9 AU
- dsRNA signal, AU Low: 23454.9 AU

SMILES: CCn1c(N)c(C(=O)NC)c(=O)c2ccc(C#C[C@@](C)(O)COC)nc21 [SAR131675]
- dsRNA signal, AU High: 44218.5 AU
- dsRNA signal, AU Low: 34484.3 AU

SMILES: CN1C/C=C/CCOc2cccc(c2)-c2ccnc(n2)Nc2cccc(c2)C1 [SB1317]
- dsRNA signal, AU High: 1210.9 AU
- dsRNA signal, AU Low: 26680.2 AU

SMILES: Oc1ccc(-c2nc(-c3ccc(F)cc3)c(-c3ccncc3)[nH]2)cc1 [SB202190 (FHPI)]
- dsRNA signal, AU High: 29217.1 AU
- dsRNA signal, AU Low: 9508.1 AU

SMILES: Cc1cccc(-c2[nH]c(C(C)(C)C)nc2-c2ccc3nccnc3c2)n1 [SB525334]
- dsRNA signal, AU High: 34680.3 AU
- dsRNA signal, AU Low: 27941.4 AU

SMILES: Cn1cc(C2=C(c3ccc(Cl)cc3Cl)C(=O)NC2=O)c2ccccc21 [SB 216763]
- dsRNA signal, AU High: 596.7 AU
- dsRNA signal, AU Low: 53506.5 AU

SMILES: COc1nccc(-c2c(-c3ccc(F)cc3)ncn2C2CCC(O)CC2)n1 (stereo not shown) [SB 239063]
- dsRNA signal, AU High: 16458.2 AU
- dsRNA signal, AU Low: 15855.6 AU

SMILES: NC(=O)c1ccc(-c2nc(-c3ccc4c(c3)OCO4)c(-c3ccccn3)[nH]2)cc1 [SB 431542]
- dsRNA signal, AU High: 540.4 AU
- dsRNA signal, AU Low: 12958.4 AU

SMILES: O=C(Nc1ccc2[nH]nc(-c3ccncc3)c2c1)[C@@H]1CCN(CC(=O)N2CCN(c3ccc(-c4ncccn4)cc3)CC2)C1 [SCH772984]
- dsRNA signal, AU High: 21169.8 AU
- dsRNA signal, AU Low: 17905.7 AU

SMILES: CC(C)(C)C(=O)Nc1ccc2c(c1)C(=O)C(=O)c1ccccc1-2 [SF1670]
- dsRNA signal, AU High: 30745.4 AU
- dsRNA signal, AU Low: 12301.2 AU

SMILES: CN1CCC(CNc2ccc3ncc(-c4cccc(OC(F)(F)F)c4)n3n2)CC1 [SGI-1776 free base]
- dsRNA signal, AU High: 1583.1 AU
- dsRNA signal, AU Low: 29976.5 AU

SMILES: Cn1cc(-c2ccc3nnc(Sc4ccc5ncccc5c4)n3n2)cn1 [SGX-523]
- dsRNA signal, AU High: 18702.9 AU
- dsRNA signal, AU Low: 25732.4 AU

SMILES: Oc1ccc(Nc2nc(-c3ccc(Cl)cc3)cs2)cc1 [SKI II]
- dsRNA signal, AU High: 31334.0 AU
- dsRNA signal, AU Low: 21341.0 AU

SMILES: CNC(=O)c1cc(Oc2ccc(NC(=O)c3cccc(C(F)(F)F)c3)cc2)ccn1 [SKLB610]
- dsRNA signal, AU High: 126.4 AU
- dsRNA signal, AU Low: 8430.0 AU

SMILES: N#C/C(=C(/N)Sc1ccc(N)cc1)c1ccccc1C(F)(F)F [SL-327]
- dsRNA signal, AU High: 10911.9 AU
- dsRNA signal, AU Low: 24198.7 AU

SMILES: CC(C)NC(=O)COc1cccc(-c2nc(Nc3ccc4[nH]ncc4c3)c3ccccc3n2)c1 [SLx-2119]
- dsRNA signal, AU High: 20785.5 AU
- dsRNA signal, AU Low: 59494.3 AU

SMILES: O=C1NC(=O)/C(=C/c2cccc(C(F)(F)F)c2)S1 [SMI-4a]
- dsRNA signal, AU High: 0.0 AU
- dsRNA signal, AU Low: 12244.4 AU

SMILES: O=C(Nc1cccc(Cl)c1)Nc1ncc(CCNc2ncnc3ccsc23)s1 [SNS-314 Mesylate]
- dsRNA signal, AU High: 5716.5 AU
- dsRNA signal, AU Low: 33317.4 AU

SMILES: O=C(Nc1cc(C(F)(F)F)ccc1N1CCCCC1)c1ccncc1 [SRPIN340]
- dsRNA signal, AU High: 38969.9 AU
- dsRNA signal, AU Low: 6071.8 AU

SMILES: COc1c(C)c(C(=O)c2ccc(N)c(C(=O)[O-])c2)n2ccccc12.[Na+] [SSR128129E]
- dsRNA signal, AU High: 4736.0 AU
- dsRNA signal, AU Low: 27624.5 AU

SMILES: O=S(=O)(N=Cc1c(O)ccc2ccccc12)c1cccs1 [STF 083010]
- dsRNA signal, AU High: 54363.2 AU
- dsRNA signal, AU Low: 46405.9 AU

SMILES: Cc1cc(C)c(/C=C2\C(=O)Nc3ccccc32)[nH]1 [SU5416]
- dsRNA signal, AU High: 39551.1 AU
- dsRNA signal, AU Low: 20455.1 AU

SMILES: O=C(/C=C/c1ccccc1)NC(NC(=S)Nc1ccc(Cl)cc1)C(Cl)(Cl)Cl (stereo not shown) [Sal 003]
- dsRNA signal, AU High: 58234.6 AU
- dsRNA signal, AU Low: 61292.8 AU

SMILES: OC[C@H]1O[C@@H](OCCc2ccc(O)cc2)[C@H](O)[C@@H](O)[C@@H]1O [Salidroside]
- dsRNA signal, AU High: 19295.0 AU
- dsRNA signal, AU Low: 56220.3 AU

SMILES: C[n+]1cc2c3c(ccc2c2ccc4cc5c(cc4c21)OCO5)OCO3 [Sanguinarine chloride]
- dsRNA signal, AU High: 0.0 AU
- dsRNA signal, AU Low: 15548.2 AU

SMILES: C[n+]1cc2c3c(ccc2c2ccc4cc5c(cc4c21)OCO5)OCO3 [Sanguinarine]
- dsRNA signal, AU High: 0.0 AU
- dsRNA signal, AU Low: 895.9 AU

SMILES: O=C(O)[C@H]1O[C@@H](Oc2cc3oc(-c4ccc(O)cc4)cc(=O)c3c(O)c2O)[C@H](O)[C@@H](O)[C@@H]1O [Scutellarin]
- dsRNA signal, AU High: 1769.9 AU
- dsRNA signal, AU Low: 52840.4 AU

SMILES: N#Cc1ccc2ncnc(NCCc3ccccc3)c2c1 [Senexin A]
- dsRNA signal, AU High: 30520.6 AU
- dsRNA signal, AU Low: 31796.6 AU

SMILES: O=C(O)c1cc(O)c2c(c1)[C@@H]([C@H]1c3cc(C(=O)O)cc(O)c3C(=O)c3c(O[C@@H]4O[C@H](CO)[C@@H](O)[C@H](O)[C@H]4O)cccc31)c1cccc(O[C@@H]3O[C@H](CO)[C@@H](O)[C@H](O)[C@H]3O)c1C2=O [Sennoside B]
- dsRNA signal, AU High: 3953.3 AU
- dsRNA signal, AU Low: 3310.7 AU

SMILES: CC(C)=CC[C@@H](O)C1=CC(=O)c2c(O)ccc(O)c2C1=O [Shikonin]
- dsRNA signal, AU High: 54262.1 AU
- dsRNA signal, AU Low: 4009.3 AU

SMILES: CN1CCN(c2nc(C3=C(c4c[nH]c5ccccc45)C(=O)NC3=O)c3ccccc3n2)CC1 [Sotrastaurin (AEB071)]
- dsRNA signal, AU High: 6965.2 AU
- dsRNA signal, AU Low: 40818.2 AU

SMILES: COc1cc(N2CCC(N3CCN(C)CC3)CC2)ccc1Nc1ncc(Cl)c(Nc2ccccc2S(=O)(=O)C(C)C)n1 [TAE684 (NVP-TAE684)]
- dsRNA signal, AU High: 41419.4 AU
- dsRNA signal, AU Low: 4182.3 AU

SMILES: COc1cc(C(=O)NC2CCN(C)CC2)c(F)cc1Nc1ncc2c(n1)N(C1CCCC1)CC(F)(F)C(=O)N2C [TAK960]
- dsRNA signal, AU High: 9929.6 AU
- dsRNA signal, AU Low: 56355.2 AU

SMILES: N#Cc1c(Oc2ccc(F)c(NC(=O)Cc3cccc(C(F)(F)F)c3)c2)ccc2nc(NC(=O)C3CC3)sc12 [TAK-632]
- dsRNA signal, AU High: 12667.4 AU
- dsRNA signal, AU Low: 8796.8 AU

SMILES: CCc1nc(-c2cccc(C)c2)c(-c2ccnc(NC(=O)c3ccccc3)c2)s1 [TAK-715]
- dsRNA signal, AU High: 42569.8 AU
- dsRNA signal, AU Low: 29513.1 AU

SMILES: CCS(=O)(=O)c1cccc(-c2cc(C(=O)NC3CCN(C)CC3)c(C)c3[nH]c4ncc(C)cc4c23)c1 [TAK-901]
- dsRNA signal, AU High: 42486.6 AU
- dsRNA signal, AU Low: 61332.6 AU

SMILES: Brc1c(Br)c(Br)c2n[nH]nc2c1Br [TBB]
- dsRNA signal, AU High: 3323.3 AU
- dsRNA signal, AU Low: 16520.0 AU

SMILES: COc1ccc(C(=O)Nc2sc3c(c2C(N)=O)CCCC3)cc1OC [TCS 359]
- dsRNA signal, AU High: 5896.0 AU
- dsRNA signal, AU Low: 63380.8 AU

SMILES: N#Cc1c(NC(=O)c2cccc3ccccc23)sc2c1CCCC2 [TCS JNK 5a]
- dsRNA signal, AU High: 1144.9 AU
- dsRNA signal, AU Low: 17159.4 AU

SMILES: N#Cc1c(-c2ccccc2)cc(-c2cc(Br)ccc2O)[nH]c1=O [TCS PIM-1 1]
- dsRNA signal, AU High: 1935.2 AU
- dsRNA signal, AU Low: 16463.0 AU

SMILES: O=C1NC(=O)/C(=C/c2cccc(C(F)(F)F)c2)S1 [TCS-PIM-1-4a]
- dsRNA signal, AU High: 1917.5 AU
- dsRNA signal, AU Low: 12250.9 AU

SMILES: Cn1sc(=O)n(Cc2ccccc2)c1=O [TDZD-8]
- dsRNA signal, AU High: 7580.3 AU
- dsRNA signal, AU Low: 26092.4 AU

SMILES: CCN1/C(=C/C(C)=O)Sc2ccc(OC)cc21 [TG003]
- dsRNA signal, AU High: 1126.7 AU
- dsRNA signal, AU Low: 61445.9 AU

SMILES: Nc1nc(N)c2nc(-c3cccc(O)c3)c(-c3cccc(O)c3)nc2n1 [TG100-115]
- dsRNA signal, AU High: 401.6 AU
- dsRNA signal, AU Low: 17405.4 AU

SMILES: Cc1ccccc1CN1C(=O)C2=C(CCN(Cc3ccccc3)C2)N2CCN=C12 [TIC10]
- dsRNA signal, AU High: 0.0 AU
- dsRNA signal, AU Low: 1481.6 AU

SMILES: Cc1[nH]c(/C=C2\C(=O)Nc3ccccc32)c(C)c1CCC(=O)O [TSU-68 (SU6668,Orantinib)]
- dsRNA signal, AU High: 4841.4 AU
- dsRNA signal, AU Low: 21696.8 AU

SMILES: Nc1cccc(-c2cc3c(Oc4cccc(O)c4)ncnc3[nH]2)c1 [TWS119]
- dsRNA signal, AU High: 48959.2 AU
- dsRNA signal, AU Low: 29417.1 AU

SMILES: COc1cc2c(N3CCN(C(=O)Nc4ccc(OC(C)C)cc4)CC3)ncnc2cc1OCCCN1CCCCC1.Cl [Tandutinib (MLN518) HCl]
- dsRNA signal, AU High: 42444.4 AU
- dsRNA signal, AU Low: 13615.8 AU

SMILES: O=C(NCc1ccccc1)c1csc(Nc2ccncn2)n1 [Thiazovivin]
- dsRNA signal, AU High: 2364.1 AU
- dsRNA signal, AU Low: 26827.3 AU

SMILES: O=c1sn(-c2cccc3ccccc23)c(=O)n1Cc1ccccc1 [Tideglusib]
- dsRNA signal, AU High: 352.7 AU
- dsRNA signal, AU Low: 1603.7 AU

SMILES: COc1ccc2cc(-c3nc(-c4ccc([S+](C)[O-])cc4)[nH]c3-c3ccncc3)ccc2c1 (stereo not shown) [Tie2 kinase inhibitor]
- dsRNA signal, AU High: 4787.9 AU
- dsRNA signal, AU Low: 16594.7 AU

SMILES: COc1cc2nccc(Oc3ccc(NC(=O)Nc4cc(C)on4)c(Cl)c3)c2cc1OC [Tivozanib (AV-951)]
- dsRNA signal, AU High: 40142.9 AU
- dsRNA signal, AU Low: 36133.0 AU
